For experiment [1], the target named is T1, ACE-2 (Homo sapiens, UniProt Q9BYF1).
T1 construct: a stop codon inserted after the serine immediately preceding the transmembrane domain; made in house; host or cells: CHO K1 cells (transient transfection, purified from conditioned medium)
Nature of the experiment: ACE-2 Competitive Substrate Assay (ACS Assay). The following applies: Ki class; compounds tested in 5% DMSO, 12 concentrations; read-out: Human ACE-2 Activity. It is filed as biochemical.

The target of experiment [2] is ACE-2 (Rattus norvegicus, UniProt Q5EGZ1). As to the kind of experiment: ACE-2 Competitive Substrate Assay, rat ACE-2. It is filed as biochemical. The settings on record: Ki class; compounds tested in 5% DMSO, 12 concentrations.
ACE-2 (Rattus norvegicus, UniProt Q5EGZ1), sequence (Q5EGZ1 18-805): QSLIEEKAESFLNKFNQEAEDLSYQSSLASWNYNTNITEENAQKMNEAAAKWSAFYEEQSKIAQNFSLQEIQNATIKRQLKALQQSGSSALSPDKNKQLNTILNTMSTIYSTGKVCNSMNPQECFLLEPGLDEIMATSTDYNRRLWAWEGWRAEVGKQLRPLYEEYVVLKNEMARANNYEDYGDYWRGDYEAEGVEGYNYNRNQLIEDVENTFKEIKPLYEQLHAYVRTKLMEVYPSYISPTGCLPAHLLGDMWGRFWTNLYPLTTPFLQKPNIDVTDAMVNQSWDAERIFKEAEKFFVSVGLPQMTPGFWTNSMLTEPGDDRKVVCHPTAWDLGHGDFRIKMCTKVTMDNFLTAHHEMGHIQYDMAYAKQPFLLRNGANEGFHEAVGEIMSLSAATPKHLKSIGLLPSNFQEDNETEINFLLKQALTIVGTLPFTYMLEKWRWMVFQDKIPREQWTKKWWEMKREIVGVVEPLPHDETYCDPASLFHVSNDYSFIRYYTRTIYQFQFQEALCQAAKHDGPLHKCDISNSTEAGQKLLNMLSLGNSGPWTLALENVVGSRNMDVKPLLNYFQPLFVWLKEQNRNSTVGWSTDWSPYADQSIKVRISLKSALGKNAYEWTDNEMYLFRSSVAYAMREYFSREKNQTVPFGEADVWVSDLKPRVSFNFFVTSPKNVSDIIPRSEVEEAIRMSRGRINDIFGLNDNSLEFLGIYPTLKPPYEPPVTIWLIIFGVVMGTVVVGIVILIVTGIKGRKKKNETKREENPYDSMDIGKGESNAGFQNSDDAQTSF
For another experiment, the target named is T2, ACE (Sigma, A2580) (Sus scrofa, UniProt F1RRW5).
T2 construct: ACE from porcine kidney; purchased Sigma A2580; host or cells: porcine kidney
T2 sequence (F1RRW5 34-1309): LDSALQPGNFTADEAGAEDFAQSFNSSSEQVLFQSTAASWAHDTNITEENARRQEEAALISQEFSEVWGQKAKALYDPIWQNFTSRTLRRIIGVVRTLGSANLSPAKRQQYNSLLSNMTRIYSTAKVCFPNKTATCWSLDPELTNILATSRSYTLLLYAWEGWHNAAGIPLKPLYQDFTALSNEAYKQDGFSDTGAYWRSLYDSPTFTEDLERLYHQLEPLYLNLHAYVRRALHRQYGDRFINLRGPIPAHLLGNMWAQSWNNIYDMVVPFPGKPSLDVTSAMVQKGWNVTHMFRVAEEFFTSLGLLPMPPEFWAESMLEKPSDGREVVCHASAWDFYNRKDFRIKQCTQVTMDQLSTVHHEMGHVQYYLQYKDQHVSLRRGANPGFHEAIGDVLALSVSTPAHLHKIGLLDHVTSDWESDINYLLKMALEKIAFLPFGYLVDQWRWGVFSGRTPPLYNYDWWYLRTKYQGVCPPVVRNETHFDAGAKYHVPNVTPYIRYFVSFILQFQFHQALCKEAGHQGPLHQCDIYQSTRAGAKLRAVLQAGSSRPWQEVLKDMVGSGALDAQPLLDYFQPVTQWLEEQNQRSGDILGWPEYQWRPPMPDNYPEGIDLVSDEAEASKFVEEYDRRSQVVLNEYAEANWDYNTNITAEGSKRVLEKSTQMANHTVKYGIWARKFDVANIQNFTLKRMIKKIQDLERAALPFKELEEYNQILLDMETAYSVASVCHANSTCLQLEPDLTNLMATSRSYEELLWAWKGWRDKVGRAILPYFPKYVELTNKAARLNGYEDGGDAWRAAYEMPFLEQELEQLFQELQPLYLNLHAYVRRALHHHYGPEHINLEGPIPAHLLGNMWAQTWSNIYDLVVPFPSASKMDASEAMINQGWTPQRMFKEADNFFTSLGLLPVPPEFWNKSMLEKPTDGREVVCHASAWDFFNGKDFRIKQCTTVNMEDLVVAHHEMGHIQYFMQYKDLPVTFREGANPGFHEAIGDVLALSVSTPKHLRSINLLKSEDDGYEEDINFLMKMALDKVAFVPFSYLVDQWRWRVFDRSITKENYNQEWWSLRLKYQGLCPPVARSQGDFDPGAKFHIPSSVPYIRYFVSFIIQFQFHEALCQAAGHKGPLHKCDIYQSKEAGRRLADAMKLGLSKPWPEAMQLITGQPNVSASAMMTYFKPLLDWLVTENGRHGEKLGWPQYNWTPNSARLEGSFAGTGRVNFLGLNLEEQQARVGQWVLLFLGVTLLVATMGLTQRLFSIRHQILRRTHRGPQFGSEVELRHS
Nature of the experiment: ACE enzymatic activity assay. Type of experiment: biochemical, porcine. The following applies: Ki class; compounds tested in 5% DMSO, 12 concentrations. The method, boiled down:
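ACE (1 nM final) in 50 mM HEPES, 300 mM NaCl, 0.01% Brij-35, pH 7.5, with compound in 5% DMSO at 12 concentrations, 25 °C. Substrate cleavage run ~30 min, stopped with EDTA; fluorescence read at excitation 320 nm, emission 405 nm.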

For a further experiment, the target named is T3, Carboxypeptidase A (Bos taurus, UniProt P00730).
T3 sequence (P00730 111-419): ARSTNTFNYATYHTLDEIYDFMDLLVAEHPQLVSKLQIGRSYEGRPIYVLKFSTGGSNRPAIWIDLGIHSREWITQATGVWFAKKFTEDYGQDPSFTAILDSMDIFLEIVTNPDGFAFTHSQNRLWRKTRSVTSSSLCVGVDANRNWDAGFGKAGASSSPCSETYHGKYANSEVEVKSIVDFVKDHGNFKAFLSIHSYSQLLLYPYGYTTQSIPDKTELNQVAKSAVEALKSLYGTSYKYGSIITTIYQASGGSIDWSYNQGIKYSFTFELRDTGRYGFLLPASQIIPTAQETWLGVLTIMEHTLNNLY
Nature of the experiment: Carboxypeptidase A activity assay. It is filed as biochemical. The settings on record: Ki class; compounds tested in 5% DMSO, 12 concentrations. The method, boiled down:
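Bovine carboxypeptidase A activity followed at 328 nm in 5% DMSO, reaction stopped with EDTA. Activity measured at 12 compound concentrations. Ki derived from apparent Ki as Ki=Kiapp/(1+[S]/Km).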

pKi: −log10 of the molar value.

T1 sequence (Q9BYF1 18-740 limits assumed): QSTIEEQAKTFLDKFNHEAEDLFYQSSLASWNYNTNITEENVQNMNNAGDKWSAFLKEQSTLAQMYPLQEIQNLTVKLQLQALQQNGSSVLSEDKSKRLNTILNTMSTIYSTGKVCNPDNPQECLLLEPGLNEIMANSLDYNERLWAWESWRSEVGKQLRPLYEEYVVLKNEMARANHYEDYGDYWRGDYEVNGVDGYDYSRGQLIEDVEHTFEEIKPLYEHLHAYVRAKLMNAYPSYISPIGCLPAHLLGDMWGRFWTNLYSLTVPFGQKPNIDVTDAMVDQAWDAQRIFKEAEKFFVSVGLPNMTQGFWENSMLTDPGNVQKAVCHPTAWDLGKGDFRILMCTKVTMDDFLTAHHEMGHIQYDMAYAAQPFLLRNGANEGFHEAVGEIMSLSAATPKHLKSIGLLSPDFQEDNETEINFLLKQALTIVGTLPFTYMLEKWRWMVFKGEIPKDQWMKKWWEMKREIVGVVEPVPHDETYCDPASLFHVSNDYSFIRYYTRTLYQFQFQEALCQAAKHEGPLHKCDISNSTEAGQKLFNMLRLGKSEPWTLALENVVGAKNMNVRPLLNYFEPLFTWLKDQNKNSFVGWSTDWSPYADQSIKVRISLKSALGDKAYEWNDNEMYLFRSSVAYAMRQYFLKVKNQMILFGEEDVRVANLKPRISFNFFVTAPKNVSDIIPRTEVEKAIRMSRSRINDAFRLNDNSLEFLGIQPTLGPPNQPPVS

Regarding `CC(C)CC(N[C@@H](Cc1cncn1COCc1ccccc1)C(=O)O)C(=O)O` (single isomer, unassigned) [FH, 2-[2-(3-Benzyloxymethyl-3H-imidazol-4-yl)-1-carboxy-ethylamino]-4-methyl-pentanoic acid], the pKi on ACE-2 [1] was below 6.30; at ACE-2 [2], below 6.30; at ACE (Sigma, A2580), below 4.30; on Carboxypeptidase A it was below 4.30.

For `COc1ccc(CCNC(=O)[C@H](Cc2cnc[nH]2)NC(CC(C)C)C(=O)O)cc1` (single isomer, unassigned) [FK, 2-{2-(3H-Imidazol-4-yl)-1-[2-(4-methoxy-phenyl)-ethylcarbamoyl]-ethylamino}-4-methyl-pentanoic acid], the pKi is below 6.30 on ACE-2 [1]; below 6.30 on ACE-2 [2]; below 4.30 at ACE (Sigma, A2580); below 4.30 at Carboxypeptidase A.

For the compound `CC(C)CC(N[C@H](CO)Cc1c[nH]cn1)C(=O)O` (single isomer, unassigned) [FO, 2-[1-Hydroxymethyl-2-(1H-imidazol-4-yl)-ethylamino)4-methyl-pentanoic acid], the pKi is below 6.30 on ACE-2 [1]; below 6.30 on ACE-2 [2]; below 4.30 at ACE (Sigma, A2580); below 4.30 at Carboxypeptidase A.

For the compound `CC(C)CC(N[C@@H](Cc1cnc[nH]1)C(=O)NCCc1ccccc1)C(=O)O` (single isomer, unassigned) [FW, 2-[2-(3H-Imidazol-4-yl)-1-phenethylcarbamoyl-ethylamino]-4-methyl-pentanoic acid], the pKi was below 6.30 at ACE-2 [1]; below 6.30 on ACE-2 [2]; below 4.30 on ACE (Sigma, A2580); below 4.30 at Carboxypeptidase A.

`CCCCC(N[C@@H](Cc1cncn1Cc1ccccc1)C(=O)O)C(=O)O` (single isomer, unassigned) [FY, 2-[2-(3H-Benzyl-3-imidazol-4-yl)-1-carboxy-ethylamino]-hexanoicacid]: the pKi on ACE-2 [1] was below 6.30; on ACE-2 [2] it was above 7.00; at ACE (Sigma, A2580), below 4.30; at Carboxypeptidase A, below 4.30.

For `CC(C)CC(N[C@@H](Cc1cncn1Cc1cccc([N+](=O)[O-])c1)C(=O)O)C(=O)O` (single isomer, unassigned) [GB, 2-[1-Carboxy-2-[3-(3-nitro-benzyl)-3H-imidazol-4-yl]-ethylamino]-4-methyl-pentanoic acid], the pKi at ACE-2 [1] is below 6.30; on ACE-2 [2], 6.30 to 7.00; at ACE (Sigma, A2580) it was below 4.30; on Carboxypeptidase A, below 4.30.

For the compound `CCC(C)C(NC(Cc1cncn1Cc1ccccc1)C(=O)O)C(=O)O` (single isomer, unassigned) [GC, 2-[2-(3-Benzyl-3H-imidazol-4-yl)-1-carboxy-ethylamino]-3-methyl-pentanoic acid], the pKi on ACE-2 [1] is below 6.30; at ACE-2 [2] it was 6.30 to 7.00; at ACE (Sigma, A2580), below 4.30; on Carboxypeptidase A, 4.30 to 5.00.

On to `O=C(O)C(Cc1ccccc1)N[C@@H](Cc1cncn1Cc1ccccc1)C(=O)O` (single isomer, unassigned) [GF, 3-(3-Benzyl-3H-imidazol-4-yl)-2-(1-carboxy-2-phenyl-ethylamino)-propionic acid], for which the pKi on ACE-2 [1] is below 6.30; on ACE-2 [2], 6.30 to 7.00; on ACE (Sigma, A2580), below 4.30; on Carboxypeptidase A, above 5.00.

On to `CC(C)CC(N[C@@H](Cc1cncn1Cc1cccc2ccccc12)C(=O)O)C(=O)O` (single isomer, unassigned) [GK, 2-[1-Carboxy-2-(3-naphthalen-1-ylmethyl-3Himidazol-4-yl)-ethylamino]4-methyl-pentanoic acid], for which the pKi on ACE-2 [1] is above 7.00; at ACE-2 [2], above 7.00; at ACE (Sigma, A2580), below 4.30; at Carboxypeptidase A, 4.30 to 5.00.

For the compound `CC(C)CC(N[C@@H](Cc1cncn1Cc1ccc(Cl)cc1)C(=O)O)C(=O)O` (single isomer, unassigned) [GM, 2-[1-Carboxy-2-[3-(4-chloro-benzyl)-3H-imidazol-4-yl]-ethylamino]4-methyl-pentanoic acid], the pKi at ACE-2 [1] was above 7.00; at ACE-2 [2], above 7.00; at ACE (Sigma, A2580) it was below 4.30; at Carboxypeptidase A, 4.30 to 5.00.
